Measured values reported in patent US20180243421A1, “IMMUNOSTIMULATING AGENT” (AJINOMOTO CO., INC., priority 2015, published 2018).

How the values were obtained:
[1] = Dispersibility study: turbidity in cyclodextrin-added saline; format: physicochemical; conditions: Example 11; SZ62 0.256 μmol in 1 mL; absorbance 650 nm, ratio to kaolinite
Protocol: N-hexadecanoylagmatine (SZ62: compound wherein group corresponding to R^7 in formula (II) is C15 alkyl group) (0.256 μmol) was separated in a 2 mL tube containing zilconia beads, 1 mL of 5% αCD-added saline or 10% 2-hydroxypropyl-β-cyclodextrin (hereinafter to be also simply referred to as HP-β-CD)-added saline was added and the mixture was stirred. Thereafter, the absorbance (OD Value=650 nm) was measured by a microplate reader, and the turbidity was calculated as an index of dispersibility. The measurement method of the turbidity was as follows.
Measurement Method of Turbidity
SZ62 (0.256 μmol) was dispensed to a 2 mL tube containing zirconia beads, 5% αCD-added saline or 10% HP-β-CD-added saline (1 mL) was added, and the mixture was vigorously stirred three times under conditions of one time for 3.15 seconds at 6000 rpm. The mixture was dispensed by 200 μL to a 96 well plate, and the absorbance (OD Value=650 nm) was measured by a microplate reader. As a control, kaolinite (1 mg) was dissolved in distilled water (1 L), and the absorbance (OD Value=650 nm) was measured by a microplate reader. The absorbance thereof (OD Value=650 nm) was defined to be turbidity: 1, and the turbidity of each sample was calculated from the ratio with the measured value of kaolinite.

IFN-γ = experiment: Th1 response: IFN-γ production from lymph node cells of immunized mice restimulated with OVA; format: in vivo, BALB/c mice; conditions: Example 10; s.c. OVA 10 μg + 0.256 μmol in 5% αCD saline (Addavax 1:1); groin lymph node ten days later; 0.1-100 μg OVA, 40 hr, ELISA
Protocol: Ten days later, groin lymph node was collected from all mice of the above-mentioned (1) to (4), lymph node cells were isolated and cultured in 10% FBS-containing RPMI1640 medium. Thereto was added 0.1 μg, 1 μg, 10 μg, 100 μg of OVA, respectively, 40 hr later, cell supernatant was recovered, and IFN-γ and IL-4 in the supernatant were measured by ELISA.

[2] = system: anti-OVA-specific IgG1 subclass antibody; experiment: Adjuvant activity after primary immunization: anti-OVA-specific IgG1 subclass antibody in serum (Examples 13-18); format: in vivo, BALB/c mice; conditions: OVA 5 μg + 0.256 μmol in 5% αCD saline s.c., serum after 12 days
Protocol: 8-Week-old female BALB/c mice were divided into groups (N=6), and each group was primarily immunized by dorsal-subcutaneous administration of (1) ovalbumin (OVA) (5 μg) dissolved in saline as an antigen (OVA single administration group), (2) OVA (5 μg) and SZ83 (0.256 μmol) dissolved or dispersed in 5% αCD-added saline (SZ83 administration group), (3) OVA (5 μg) and SZ84 (0.256 μmol) dissolved or dispersed in 5% αCD-added saline (SZ84 administration group), (4) OVA (5 μg) and SZ86 (0.256 μmol) dissolved or dispersed in 5% αCD-added saline (SZ86 administration group), (5) OVA (5 μg) and SZ89 (0.256 μmol) dissolved or dispersed in 5% αCD-added saline (SZ89 administration group), (6) OVA (5 μg) and SZ90 (0.256 μmol) dissolved or dispersed in 5% αCD-added saline (SZ90 administration group), each per mouse. After 12 days, blood samples were collected under anesthesia, and the obtained serum samples were subjected to the measurement of an anti-OVA-specific IgG1 subclass antibody.
Measurement Method of Concentration of anti-OVA-specific IgG1 Subclass Antibody and anti-OVA-specific IgG2a Subclass Antibody
To a 96 well plate was added 5 μg/ml OVA at 100 μl/well, and the mixture was incubated at 4° C. overnight. After incubation, the mixture was washed three times with 200 μl of PBS-T (PBS+0.05% (v/v) Tween 20) per well, and blocked with 100 μl of 5% FCS/PBS solution per well at room temperature for 1 to for 2 hr. Thereafter, the mixture was washed three times with PBS-T (200 μl/well), a diluted serum sample (100 μl/well) or the same amount of 5% FCS/PBS solution as a control was added, to and the mixture was incubated at 37° C. for 1 hr. To calculate concentration of the antibody, the standard of an anti-OVA-specific IgG1 subclass antibody diluted with 2% FCS/PBS solution was added at 100 ng/ml, 50 ng/ml, 25 ng/ml, 12.5 ng/ml, 6.25 ng/ml, 3.125 ng/ml, 1.56 ng/ml, 0.781 ng/ml, 0.391 ng/ml, 0.195 ng/ml, 0.098 ng/ml, 0 ng/ml, per 1 well. When an anti-OVA-specific IgG2a subclass antibody was measured, the standard of an anti-OVA-specific IgG2a subclass antibody was added at 50 ng/ml, 25 ng/ml, 12,5 ng/ml, 6.25 ng/ml, 3.125 ng/ml, 1.56 ng/ml, 0.781 ng/ml, 0.391 ng/ml, 0.195 ng/ml, 0.098 ng/ml, 0.049 ng/ml, 0 ng/ml, per 1 well. […] Thereafter, the mixture was washed five times with PBS-T (200 μl/well), a diluted anti-biotin-HRP antibody was added (100 μl/well), and the mixture was incubated at 37° C. for another 30 min. Thereafter, the mixture was washed five times with PBS-T (200 μl/well), TMB substrate solution was added (100 μl/well), and the mixture was incubated at room temperature for 10- for 15 min. Thereafter, a reaction quenching liquid (2N sulfuric acid solution) was added (50 μl/well) to discontinue a color developing reaction, and the absorbance (OD Value=450 nm) was measured by a microplate reader. A standard curve was drawn from the measured OD values, and the concentration was calculated.
8-Week-old female BALB/c mice were divided into groups (N=6), and each group was primarily immunized by dorsal-subcutaneous administration of (1) ovalbumin (OVA) (5 μg) dissolved in saline as an antigen (OVA single administration group), (2) OVA (5 μg) and SZ92 (0.256 μmol) dissolved or dispersed in 5% αCD-added saline (SZ92 administration group), (3) OVA (5 μg) and SZ94 (0.256 μmol) dissolved or dispersed in 5% αCD-added saline (SZ94 administration group), (4) OVA (5 μg) and SZ95 (0.256 μmol) dissolved or dispersed in 5% αCD-added saline (SZ95 administration group), (5) OVA (5 μg) and SZ96 (0.256 μmol) dissolved or dispersed in 5% αCD-added saline (SZ96 administration group), each per mouse. After 12 days, blood samples were collected under anesthesia, and the obtained serum samples were subjected to the measurement of anti-OVA-specific IgG1 subclass antibody.

## CCCCCCCCCCCCCCCC(=O)NC(=N)NCCCCN [SZ62, N-hexadecanoylagmatine]
[1]
  turbidity after addition of 10% HP-β-CD-added saline and stirring, versus turbidity after addition of 5% αCD-added saline: significantly lower
IFN-γ
  IFN-γ production from lymph node cells: increased in an OVA volume dependent manner

## CCCCCCCCCCCCCCCCCCC(CCCCCCCCCCCCCCCCCC)C(=O)N[C@@H](CC(C)C)C(=O)OC [SZ86, N-(2-octadecyleicosanoyl)-L-leucine methyl ester]
[2]; Example 13
  anti-OVA-specific IgG1 subclass antibody production after primary immunization: show a tendency to increase

## CCCCCCCCCCCCCCCC(=O)N[C@@H](CC(C)C)C(=O)N(CC)CC [SZ92, N^2-hexadecanoyl-N^1,N^1-diethyl-L-leucinamide]
[2]; Example 14
  anti-OVA-specific IgG1 subclass antibody production after primary immunization as compared to the OVA single administration group: significantly increased

## CCCCCCCCCCCCCCCC(=O)N[C@@H](CC(C)C)C(=O)OCCCCCC [SZ97, N-hexadecanoyl-L-leucine hexyl ester]
[2]; Example 15
  anti-OVA-specific IgG1 subclass antibody production after primary immunization as compared to the OVA single administration group: show a tendency to increase

## CCCCCCCCCCCCCCCC(=O)N[C@@H](CCCNC(=N)N)C(=O)OCCCCCC.Cl [SZ99, N^2-hexadecanoyl-L-arginine hexyl ester hydrochloride salt]
[2]; Example 15
  anti-OVA-specific IgG1 subclass antibody production after primary immunization as compared to the OVA single administration group: significantly increased

## CCCCCCCCCCCCCCCCCCCCCC(=O)N[C@@H](CCC(=O)O)C(=O)N(CC)CC [SZ106, N^2-docosanoyl-N^1,N^1-diethyl-L-glutamic acid 1-amide]
[2]; Example 15
  anti-OVA-specific IgG1 subclass antibody production after primary immunization as compared to the OVA single administration group: show a tendency to increase

## CCCCCCCCCCCCCCCCCCCCCC(=O)NC(=N)NCCCCN.Cl [SZ108, N-docosanoylagmatine hydrochloride salt]
[2]; Example 16
  anti-OVA-specific IgG1 subclass antibody production after primary immunization as compared to the OVA single administration group: significantly increased
